From patent US20030040510A1, “Selective estrogen receptor modulators in combination with estrogens” (Endorecherche, Inc., priority 2000, published 2003)
Several values for one entry are separate records, joined by “and”; a condition that tells them apart may be missing. Equal entries are not always repeated. Structures can show the parent of a compound that is named as a salt. Blank lines part the entries; values can stand above or below the molecule they belong to.

Assays:
[1] = tested on: breast and endometrial tissues; assay: Antiestrogens tested for SERM function and estrogenic activity in breast and endometrium; details: for Estrogenic activity in breast and endometrial tissues: physiological or pharmacological concentrations
Source text: As used herein, a selective estrogen receptor modulator (SERM) is a compound that either directly or through its active metabolite functions as an estrogen receptor antagonist (“antiestrogen”) in breast tissue, yet provides estrogenic or estrogen-like effect on bone tissue and on serum cholesterol levels (i.e. by reducing serum cholesterol). Non-steroidal compounds that function as estrogen receptor antagonists in vitro or in human or rat breast tissue (especially if the compound acts as an antiestrogen on human breast cancer cells) is likely to function as a SERM. Conversely, steroidal antiestrogens tend not to function as SERMs because they tend not to display any beneficial effect on serum cholesterol. […] These SERMs may be called “pure SERMs”. […] This second series of SERMs may be called “mixed SERMs”. The unwanted estrogenic activities of these “mixed SERMs”, may be inhibited by addition of pure “SERMs” as shown in FIGS. 6 and 7 in in vitro tests and in FIG. 9 in an in vivo test of breast cancer.

[2] = tested on: ovariectomized female rats; assay: Prevention of bone loss, body fat, serum cholesterol and ALP, 26-week treatment of OVX rats (Example 5A, experiment 2); type: in vivo, Sprague-Dawley rats; details: 26 weeks
Description: Ten to twelve week-old female Sprague-Dawley rats (Crl:CD(SD)Br) (Charles River Laboratory, St-Constant, Canada) weighing approximately 220-270 g at start of treatment were used. The animals were acclimatized to the environmental conditions (temperature: 22±3° C.; humidity: 50±20%; 12-h light-12-h dark cycles, lights on at 07:15 h) for at least 1 week before starting the experiments. The animals were housed individually and were allowed free access to tap water and a pelleted certified rodent feed (Lab Diet 5002, Ralston Purina, St-Louis, Mo.). Experiments were conducted in an animal facility approved by the Canadian Council on Animal Care (CCAC) and the Association for Assessment and Accreditation of Laboratory Animal Care (AAALAC) in accordance with the CCAC Guide for Care and Use of Experimental Animals.
On day 1 of the study, the animals of the appropriate groups were bilaterally OVX under isoflurane anesthesia. Tested compounds were administered as suspension in 0.4% methylcellulose by oral gavage. Treatments were initiated on day 2 of the study and were performed once daily during 26 weeks. In both experiments, animals not receiving a test article were treated with the appropriate vehicle alone during the same period.
After 3 months (experiment 1) or 26 weeks (experiment 2) of treatment, individual rats under Isoflurane anesthesia had their whole body skeleton and lumbar spine scanned using dual energy x-ray absorptiometry (DEXA; QDR 4500A, Hologic, Waltham, Mass.) and a Regional High Resolution Scan software. The bone mineral density (BMD) of the lumbar spine (vertebrae L2 to L4) and the total body composition (fat percentage) were determined.
After 3 months (experiment 1) or 26 weeks (experiment 2) of treatment, blood samples were collected at the jugular vein from overnight fasted animals (under Isoflurane anesthesia). Samples were processed for serum preparation and frozen at −80° C. until assay. Serum cholesterol levels and alkaline phospatase activity (ALP) were determined using the Boehringer Mannheim Diagnostic Hitachi 911 Analyzer (Boehringer Mannheim Diagnostic Laboratory Systems).

ZR-75-1 breast tumors = assay: Growth and response category of human ZR-75-1 breast tumors in OVX nude mice, 7 antiestrogens, 161 days (Example 8); type: in vivo; details: 161 days
Description: The mice (5 per cage) were housed in vinyl cages equipped with air filter lids, which were kept in laminar airflow hoods and maintained under pathogen-limiting conditions. The photoperiod was 12 hours of light and 12 hours of darkness (lights on at 07:15). Cages, bedding and food (Agway Pro-Lab R-M-H Diet #4018) were autoclaved before use. Water was autoclaved and provided ad libitum. Bilateral ovariectomy was performed under isoflurane-induced anesthesia. […] Randomization and treatments were started one week later. […] The 17 groups included two control groups (OVX and OVX+Estrone), seven groups supplemented with an estrone implant and treated with an antiestrogen and eight other groups that received an antiestrogen alone. The estrone implants were then removed from the animals in the ovariectomized control group (OVX) and in groups that were to receive the antiestrogen alone. […] Tamoxifen was purchased from […], Israel) while toremifene citrate was purchased from Orion (Espoo, Finland). […] Animals in both control groups received 0.2 ml of the vehicle alone. The antiestrogen suspensions at the appropriate concentration were prepared each month, stored at 4° C. and used under constant agitation. Powder stock were hermetically stored at 4° C. […] Tumor response was assessed at the end of the study or at death of each animal, if it occurred during the course of the experiment. In this case, only data of mice that survived for at least half of the study (84 days) were used in the tumor response analysis.

[3] = tested on: ZR-75-1 breast tumor xenografts; assay: Growth of human ZR-75-1 breast tumor xenografts in OVX nude mice supplemented with estrone (DHEA, EM-800; Example 1); details: OVX + E1 (0.5 μg) alone, 9.5 months
[4] = Tissue distribution of radioactivity after a single oral dose of ^14C-EM-800; type: in vivo, female Long-Evans rats; details: for Drug-derived radioactivity, brain / Drug-derived radioactivity, blood / Drug-derived radioactivity, plasma: 20 mg/kg
[5] = 200 μg daily, absence of estrone

SMILES: C[C@]12CC[C@@H]3c4ccc(O)cc4C[C@@H](CCCCCCCCC[S+]([O-])CCCC(F)(F)C(F)(F)F)[C@H]3[C@@H]1CC[C@@H]2O (stereo partly shown) [ICI 182,780]
- Function as SERM [1]: not to function as a-SERMs

SMILES: CCC(=C(c1ccc(O)cc1)c1ccc(OCCN(C)C)cc1)c1ccccc1 [4-hydroxy-Tamoxifen, 1-(4-dimethylaminoethoxyphenyl)-1-(4-hydroxyphenyl)-2-phenyl-but-1-ene]
- Function as SERM [1]: found to function as SERMs
- Estrogenic activity in breast and endometrial tissues [1]: have some estrogenic activities

SMILES: Oc1ccc2c(c1)CC[C@H](c1ccccc1)[C@@H]2c1ccc(OCCN2CCCC2)cc1 (racemic) [Lasofoxifene, cis-1R-[4′-pyrrolidino-ethoxyphenyl]-2S-phenyl-6-hydroxy-1,2,3,4,-tetrahydronaphthalene D-(−)-tartrate salt]
- Serum cholesterol ([2]; OVX rats): 0.60 ± 0.02 mmol/L
- OVX-induced increase on serum cholesterol levels ([2]; alone or in combination with Premarin): completely prevented
- Function as SERM [1]: found to function as SERMs

SMILES: CC/C(=C(\c1ccccc1)c1ccc(OCCN(C)C)cc1)c1ccccc1 [Tamoxifen, (Z)-2-[4-(1,2-diphenyl-1-butenyl)phenoxy]-N,N-dimethylethanamine]
- Progressing tumors (ZR-75-1 breast tumors; 50 μg daily + estrone): 65%
- Progressing tumors (ZR-75-1 breast tumors; [5]): 62%
- Function as SERM [1]: found to function as SERMs
- Estrogenic activity in breast and endometrial tissues [1]: have some estrogenic activities

SMILES: Cl.Oc1ccc(-c2sc3cc(O)ccc3c2Oc2ccc(OCCN3CCCCC3)cc2)cc1 [LY 335 563, 6-hydroxy-3-[4-[2-(1-piperidinyl)ethoxy]phenoxyl]-2-(4-hydroxyphenyl) benzo[b]thiopene hydrochloride]
- Function as SERM [1]: found to function as SERMs
- Estrogenic activity in breast and endometrial tissues [1]: have some estrogenic activities

SMILES: C[C@]12CC[C@@H]3c4ccc(O)cc4CC[C@H]3[C@@H]1CCC2=O [E1, Estrone, reference compound]
- Category of response: Complete [3]: 0 (0) Number and (%)
- Category of response: Partial [3]: 0 (0) Number and (%)
- Category of response: Progression [3]: 14 (87.5) Number and (%)
- Category of response: Complete ([3]; listed as estrone): 0 Number and (%)

- Radioactivity in the brain lower than in liver ([4]; 2 hours): 412
- Radioactivity in the brain lower than in plasma ([4]; 2 hours): 13 times
- Radioactivity in the brain lower than in the blood ([4]; 2 hours): 8.4 times
- Radioactivity in the brain lower than in the uterus ([4]; 2 hours): 21 times
- Drug-derived radioactivity, liver ([4]; 2 hr, 20 mg/kg oral): 7.2547 μg EM-800 equiv/g tissue
- Drug-derived radioactivity, uterus ([4]; 2 hr, 20 mg/kg oral): 0.3675 μg EM-800 equiv/g tissue
- Drug-derived radioactivity, liver ([4]; 4 hr, 20 mg/kg oral): 3.2201 μg EM-800 equiv/g tissue
- Drug-derived radioactivity, uterus ([4]; 4 hr, 20 mg/kg oral): 0.2866 μg EM-800 equiv/g tissue
- Drug-derived radioactivity, liver ([4]; 6 hr, 20 mg/kg oral): 2.7462 μg EM-800 equiv/g tissue
- Drug-derived radioactivity, uterus ([4]; 6 hr, 20 mg/kg oral): 0.2757 μg EM-800 equiv/g tissue
- Drug-derived radioactivity, liver ([4]; 8 hr, 20 mg/kg oral): 2.7748 μg EM-800 equiv/g tissue
- Drug-derived radioactivity, uterus ([4]; 8 hr, 20 mg/kg oral): 0.3332 μg EM-800 equiv/g tissue
- Drug-derived radioactivity, liver ([4]; 12 hr, 20 mg/kg oral): 1.8232 μg EM-800 equiv/g tissue
- Drug-derived radioactivity, uterus ([4]; 12 hr, 20 mg/kg oral): 0.2407 μg EM-800 equiv/g tissue
- Drug-derived radioactivity, liver ([4]; 24 hr, 20 mg/kg oral): 0.6391 μg EM-800 equiv/g tissue
- Drug-derived radioactivity, uterus ([4]; 24 hr, 20 mg/kg oral): 0.0837 μg EM-800 equiv/g tissue
- Drug-derived radioactivity, liver ([4]; 36 hr, 20 mg/kg oral): 0.4034 μg EM-800 equiv/g tissue
- Drug-derived radioactivity, uterus ([4]; 36 hr, 20 mg/kg oral): 0.0261 μg EM-800 equiv/g tissue
- Drug-derived radioactivity, liver ([4]; 48 hr, 20 mg/kg oral): 0.2196 μg EM-800 equiv/g tissue
- Drug-derived radioactivity, uterus ([4]; 48 hr, 20 mg/kg oral): 0.0238 μg EM-800 equiv/g tissue
- Drug-derived radioactivity, liver ([4]; 72 hr, 20 mg/kg oral): 0.1326 μg EM-800 equiv/g tissue
- Drug-derived radioactivity, uterus ([4]; 72 hr, 20 mg/kg oral): 0 μg EM-800 equiv/g tissue
- Drug-derived radioactivity, liver ([4]; 96 hr, 20 mg/kg oral): 0.0944 μg EM-800 equiv/g tissue
- Drug-derived radioactivity, uterus ([4]; 96 hr, 20 mg/kg oral): 0 μg EM-800 equiv/g tissue
- Drug-derived radioactivity, liver ([4]; 168 hr, 20 mg/kg oral): 0.0348 μg EM-800 equiv/g tissue
- Drug-derived radioactivity, uterus ([4]; 168 hr, 20 mg/kg oral): 0 μg EM-800 equiv/g tissue
- Total drug-derived radioactivity in the brain ([4]; female Long-Evans rats, 20 mg/kg oral): not detected after 12 hr post dose
SMILES: CC1=C(c2ccc(OC(=O)C(C)(C)C)cc2)[C@H](c2ccc(OCCN3CCCCC3)cc2)Oc2cc(OC(=O)C(C)(C)C)ccc21 [^14C-EM-800]
- Drug-derived radioactivity, brain ([4]; 24 hr, 20 mg/kg oral): 0 ng EM-800 equiv/g tissue and 0 μg EM-800 equiv/g tissue
- Drug-derived radioactivity, blood ([4]; 36 hr, 20 mg/kg oral): 0 ng EM-800 equiv/g tissue and 0 μg EM-800 equiv/g tissue
- Drug-derived radioactivity, brain ([4]; 36 hr, 20 mg/kg oral): 0 ng EM-800 equiv/g tissue and 0 μg EM-800 equiv/g tissue
- Drug-derived radioactivity, plasma ([4]; 36 hr, 20 mg/kg oral): 0 ng EM-800 equiv/g tissue and 0 μg EM-800 equiv/g tissue
- Drug-derived radioactivity, blood ([4]; 48 hr, 20 mg/kg oral): 0 ng EM-800 equiv/g tissue and 0 μg EM-800 equiv/g tissue
- Drug-derived radioactivity, brain ([4]; 48 hr, 20 mg/kg oral): 0 ng EM-800 equiv/g tissue and 0 μg EM-800 equiv/g tissue
- Drug-derived radioactivity, plasma ([4]; 48 hr, 20 mg/kg oral): 0 ng EM-800 equiv/g tissue and 0 μg EM-800 equiv/g tissue
- Drug-derived radioactivity, blood ([4]; 72 hr, 20 mg/kg oral): 0 ng EM-800 equiv/g tissue and 0 μg EM-800 equiv/g tissue
- Drug-derived radioactivity, brain ([4]; 72 hr, 20 mg/kg oral): 0 ng EM-800 equiv/g tissue and 0 μg EM-800 equiv/g tissue
- Drug-derived radioactivity, plasma ([4]; 72 hr, 20 mg/kg oral): 0 ng EM-800 equiv/g tissue and 0 μg EM-800 equiv/g tissue
- Drug-derived radioactivity, blood ([4]; 96 hr, 20 mg/kg oral): 0 ng EM-800 equiv/g tissue and 0 μg EM-800 equiv/g tissue
- Drug-derived radioactivity, brain ([4]; 96 hr, 20 mg/kg oral): 0 ng EM-800 equiv/g tissue and 0 μg EM-800 equiv/g tissue
- Drug-derived radioactivity, plasma ([4]; 96 hr, 20 mg/kg oral): 0 ng EM-800 equiv/g tissue and 0 μg EM-800 equiv/g tissue
- Drug-derived radioactivity, blood ([4]; 168 hr, 20 mg/kg oral): 0 ng EM-800 equiv/g tissue and 0 μg EM-800 equiv/g tissue
- Drug-derived radioactivity, brain ([4]; 168 hr, 20 mg/kg oral): 0 ng EM-800 equiv/g tissue and 0 μg EM-800 equiv/g tissue
- Drug-derived radioactivity, plasma ([4]; 168 hr, 20 mg/kg oral): 0 ng EM-800 equiv/g tissue and 0 μg EM-800 equiv/g tissue

SMILES: CN(C)CCOc1ccc(/C(=C(/CCCl)c2ccccc2)c2ccccc2)cc1 [Toremifene, (Z)-2-[4-(4-Chloro-1,2-diphenyl-1-butenyl)phenoxy]-N,N-dimethylethanamine]
- Progressing tumors (ZR-75-1 breast tumors; 50 μg daily + estrone): 89%
- Increase of average tumor size over baseline (ZR-75-1 breast tumors; [5]): 86%
- Progressing tumors (ZR-75-1 breast tumors; [5]): 21%
- Function as SERM [1]: found to function as SERMs
- Estrogenic activity in breast and endometrial tissues [1]: have some estrogenic activities

SMILES: CN(C)CCOc1ccc(/C(=C(/CCCl)c2ccccc2)c2ccc(O)cc2)cc1 [OH-Toremifene, (Z)-(2)-2-[4-(4-chloro-1-(4-hydroxyphenyl)-2-phenyl-1-butenyl)phenoxy]-N,N-dimethyletha namine]
- Function as SERM [1]: found to function as SERMs
- Estrogenic activity in breast and endometrial tissues [1]: have some estrogenic activities

SMILES: Cc1c(-c2ccc(O)cc2)n(Cc2ccc(OCCN3CCCCCC3)cc2)c2ccc(O)cc12 [TSE 424]
- Function as SERM [1]: found to function as SERMs
